Measured values from patent US4148896A, “Antidepressant combination” (E. I. Du Pont de Nemours and Company, priority 1978, dated 1979).
Like-named read-outs stand apart in the source and are kept apart here.

Tested on: tryptamine-induced stereotypies and hind limb paralysis
Assay: Tryptamine potentiation test
Type: in vivo, mice
Conditions: for ED50: Mus musculus, po
Method: […] […] (60 Mg/kg of tryptamine alone causes this syndrome but it lasts for less than a minute, usually only a few seconds.) The data were analyzed quantally and ED50's calculated.

CCc1c(C)[nH]c2c1C(=O)C(CN1CCOCC1)CC2 (centres unmarked) [Molindone, 3-ethyl-6,7-dihydro-2-methyl-5-(morpholinomethyl)indol-4-(5H)-one]
HIND LIMB PARALYSIS (mice responding) (2.5 mg/kg p.o., 4 Hrs., N=10): 0
ED50, HIND LIMB PARALYSIS (4 Hrs.): 8.6 mg/kg p.o.
HEAD TWITCH (mice responding) (5. mg/kg p.o., 4 Hrs., N=10): 0
HIND LIMB PARALYSIS (mice responding) (5. mg/kg p.o., 4 Hrs., N=10): 1
ED50, HEAD TWITCH (6 Hrs.): 15 mg/kg p.o.
HEAD TWITCH (mice responding) (10. mg/kg p.o., 1 Hr., N=10): 1
HIND LIMB PARALYSIS (mice responding) (10. mg/kg p.o., 1 Hr., N=10): 3
HEAD TWITCH (mice responding) (10. mg/kg p.o., 2 Hrs., N=10): 2
HIND LIMB PARALYSIS (mice responding) (10. mg/kg p.o., 2 Hrs., N=10): 8
HEAD TWITCH (mice responding) (10. mg/kg p.o., 4 Hrs., N=20): 1
HIND LIMB PARALYSIS (mice responding) (10. mg/kg p.o., 4 Hrs., N=20): 13
HEAD TWITCH (mice responding) (10. mg/kg p.o., 6 Hrs., N=10): 0
HIND LIMB PARALYSIS (mice responding) (10. mg/kg p.o., 6 Hrs., N=10): 7
HEAD TWITCH (mice responding) (10. mg/kg p.o., 24 Hrs., N=10): 0
HIND LIMB PARALYSIS (mice responding) (10. mg/kg p.o., 24 Hrs., N=10): 0
HEAD TWITCH (mice responding) (20. mg/kg p.o., 1 Hr., N=10): 3
HIND LIMB PARALYSIS (mice responding) (20. mg/kg p.o., 1 Hr., N=10): 9
HEAD TWITCH (mice responding) (20. mg/kg p.o., 2 Hrs., N=10): 3
HIND LIMB PARALYSIS (mice responding) (20. mg/kg p.o., 2 Hrs., N=10): 10
HEAD TWITCH (mice responding) (20. mg/kg p.o., 4 Hrs., N=20): 17
HIND LIMB PARALYSIS (mice responding) (20. mg/kg p.o., 4 Hrs., N=20): 20
HEAD TWITCH (mice responding) (20. mg/kg p.o., 6 Hrs., N=10): 9
HIND LIMB PARALYSIS (mice responding) (20. mg/kg p.o., 6 Hrs., N=10): 10
HEAD TWITCH (mice responding) (20. mg/kg p.o., 24 Hrs., N=10): 0
HIND LIMB PARALYSIS (mice responding) (20. mg/kg p.o., 24 Hrs., N=10): 0
HEAD TWITCH (mice responding) (40. mg/kg p.o., 1 Hr., N=10): 5
HIND LIMB PARALYSIS (mice responding) (40. mg/kg p.o., 1 Hr., N=10): 10
HEAD TWITCH (mice responding) (40. mg/kg p.o., 2 Hrs., N=10): 5
HIND LIMB PARALYSIS (mice responding) (40. mg/kg p.o., 2 Hrs., N=10): 10
HEAD TWITCH (mice responding) (40. mg/kg p.o., 4 Hrs., N=20): 19
HIND LIMB PARALYSIS (mice responding) (40. mg/kg p.o., 4 Hrs., N=20): 20
HEAD TWITCH (mice responding) (40. mg/kg p.o., 6 Hrs., N=10): 9
HIND LIMB PARALYSIS (mice responding) (40. mg/kg p.o., 6 Hrs., N=10): 10
HEAD TWITCH (mice responding) (40. mg/kg p.o., 24 Hrs., N=10): 0
HIND LIMB PARALYSIS (mice responding) (40. mg/kg p.o., 24 Hrs., N=10): 0
HEAD TWITCH (mice responding) (80. mg/kg p.o., 1 Hr., N=10): 0
HIND LIMB PARALYSIS (mice responding) (80. mg/kg p.o., 1 Hr., N=10): 4
HEAD TWITCH (mice responding) (80. mg/kg p.o., 2 Hrs., N=10): 1
HIND LIMB PARALYSIS (mice responding) (80. mg/kg p.o., 2 Hrs., N=10): 4
HEAD TWITCH (mice responding) (80. mg/kg p.o., 4 Hrs., N=10): 3
HIND LIMB PARALYSIS (mice responding) (80. mg/kg p.o., 4 Hrs., N=10): 6
HEAD TWITCH (mice responding) (80. mg/kg p.o., 6 Hrs., N=10): 6
HIND LIMB PARALYSIS (mice responding) (80. mg/kg p.o., 6 Hrs., N=10): 10
HEAD TWITCH (mice responding) (80. mg/kg p.o., 24 Hrs., N=10): 0
HIND LIMB PARALYSIS (mice responding) (80. mg/kg p.o., 24 Hrs., N=10): 0
HEAD TWITCH (mice responding) (160. mg/kg p.o., 1 Hr., N=10): 0
HIND LIMB PARALYSIS (mice responding) (160. mg/kg p.o., 1 Hr., N=10): 1
HEAD TWITCH (mice responding) (160. mg/kg p.o., 2 Hrs., N=10): 0
HIND LIMB PARALYSIS (mice responding) (160. mg/kg p.o., 2 Hrs., N=10): 4
HEAD TWITCH (mice responding) (160. mg/kg p.o., 4 Hrs., N=10): 0
HIND LIMB PARALYSIS (mice responding) (160. mg/kg p.o., 4 Hrs., N=10): 2
HEAD TWITCH (mice responding) (160. mg/kg p.o., 6 Hrs., N=10): 0
HIND LIMB PARALYSIS (mice responding) (160. mg/kg p.o., 6 Hrs., N=10): 4
HEAD TWITCH (mice responding) (160. mg/kg p.o., 24 Hrs., N=10): 2
HIND LIMB PARALYSIS (mice responding) (160. mg/kg p.o., 24 Hrs., N=10): 2
ED50 (1 Hr., read-out: ED50, HEAD TWITCH): 40 mg/kg
ED50 (1 Hr., read-out: ED50, HIND LIMB PARALYSIS): 13 mg/kg
ED50 (2 Hrs., read-out: ED50, HEAD TWITCH): 40 mg/kg
ED50 (2 Hrs., read-out: ED50, HIND LIMB PARALYSIS): < 10 mg/kg
ED50 (4 Hrs., read-out: ED50, HEAD TWITCH): 16.7 mg/kg
ED50 (4 Hrs., read-out: ED50, HIND LIMB PARALYSIS): 8.6 mg/kg
ED50 (6 Hrs., read-out: ED50, HEAD TWITCH): 15 mg/kg
ED50 (6 Hrs., read-out: ED50, HIND LIMB PARALYSIS): < 10 mg/kg
ED50 (24 Hrs., read-out: ED50, HEAD TWITCH): > 160 mg/kg
ED50 (24 Hrs., read-out: ED50, HIND LIMB PARALYSIS): > 160 mg/kg
peak time, head twitch (oral, tryptamine potentiation): 6 h
peak time, hind limb paralysis (oral, tryptamine potentiation): 4 h
Effect on the action of tryptamine (oral, at higher doses the potentiation disappears): potentiates the action of tryptamine in a dose-related manner
